Measurements as given in US11236378B2 (priority 2015, dated 2022).

System: HEK293T cells
Conditions: human

## COc1ncc(-c2ccc3nc(N)n(-c4ccc(N5CCOCC5)cc4)c3c2)cc1S(=O)(=O)Nc1ccccc1F [A1, 5-(2-amino-1-(4-(4-morpholinyl)phenyl)-1H-benzimidazol-6-yl)-N-(2-fluorophenyl)-2-methoxy-3-pyridinesulfonamide]
  concentration that killed most of the cells: ≥ 250 nM
